Measurements published in ChEMBL document CHEMBL4507294, “Data for DCP probe MSD-CYP11B2” (2021).

Legend:
[1] = biological target: Mitogen-activated protein kinase 9 (Homo sapiens) (UniProt P45984); conditions: Compound concentration 1000.0 nM
[2] = biological target: Serine/threonine-protein kinase pim-3 (Homo sapiens) (UniProt Q86V86); conditions: Compound concentration 1000.0 nM
[3] = biological target: Tyrosine-protein kinase ABL1 (Homo sapiens) (UniProt P00519); conditions: Compound concentration 1000.0 nM
[4] = biological target: Serine/threonine-protein kinase MRCK beta (Homo sapiens) (UniProt Q9Y5S2); conditions: Compound concentration 1000.0 nM
[5] = biological target: Receptor-type tyrosine-protein kinase FLT3 (Homo sapiens) (UniProt P36888); conditions: Compound concentration 1000.0 nM
[6] = tested on: Epidermal growth factor receptor (Homo sapiens), P00533 [L858R]; conditions: Compound concentration 1000.0 nM
[7] = biological target: cAMP-dependent protein kinase catalytic subunit beta (Homo sapiens) (UniProt P22694); conditions: Compound concentration 1000.0 nM
[8] = biological target: Receptor-type tyrosine-protein kinase FLT3 (Homo sapiens) (UniProt P36888); conditions: Compound concentration 1000.0 nM; remark: listed apart in the source
[9] = biological target: Misshapen-like kinase 1 (Homo sapiens) (UniProt Q8N4C8); conditions: Compound concentration 1000.0 nM
[10] = biological target: Tyrosine-protein kinase JAK3 (Homo sapiens) (UniProt P52333); conditions: Compound concentration 1000.0 nM
[11] = biological target: Serine/threonine-protein kinase MARK2 (Homo sapiens) (UniProt Q7KZI7); conditions: Compound concentration 1000.0 nM
[12] = biological target: Protein kinase C eta type (Homo sapiens) (UniProt P24723); conditions: Compound concentration 1000.0 nM
[13] = biological target: Ribosomal protein S6 kinase alpha-3 (Homo sapiens) (UniProt P51812); conditions: Compound concentration 1000.0 nM
[14] = biological target: Ephrin type-A receptor 1 (Homo sapiens) (UniProt P21709); conditions: Compound concentration 1000.0 nM
[15] = tested on: Epidermal growth factor receptor (Homo sapiens), P00533 [G719S]; conditions: Compound concentration 1000.0 nM
[16] = biological target: Serine/threonine-protein kinase Chk2 (Homo sapiens) (UniProt O96017); conditions: Compound concentration 1000.0 nM
[17] = tested on: Receptor-type tyrosine-protein kinase FLT3 (Homo sapiens), P36888 [K663Q]; conditions: Compound concentration 1000.0 nM
[18] = biological target: Dual specificity protein kinase CLK3 (Homo sapiens) (UniProt P49761); conditions: Compound concentration 1000.0 nM
[19] = biological target: Ephrin type-A receptor 8 (Homo sapiens) (UniProt P29322); conditions: Compound concentration 1000.0 nM
[20] = biological target: Mitogen-activated protein kinase 7 (Homo sapiens) (UniProt Q13164); conditions: Compound concentration 1000.0 nM
[21] = biological target: Non-receptor tyrosine-protein kinase TNK1 (Homo sapiens) (UniProt Q13470); conditions: Compound concentration 1000.0 nM
[22] = biological target: Cyclin-dependent kinase 17 (Homo sapiens) (UniProt Q00537); conditions: Compound concentration 1000.0 nM
[23] = tested on: Tyrosine-protein kinase ABL1 (Homo sapiens), P00519 [Y253F]; conditions: Compound concentration 1000.0 nM
[24] = biological target: Serine/threonine-protein kinase 38 (Homo sapiens) (UniProt Q15208); conditions: Compound concentration 1000.0 nM
[25] = biological target: Mitogen-activated protein kinase 14 (Homo sapiens) (UniProt Q16539); conditions: Compound concentration 1000.0 nM
[26] = biological target: Serine/threonine-protein kinase BRSK2 (Homo sapiens) (UniProt Q8IWQ3); conditions: Compound concentration 1000.0 nM
[27] = biological target: Serine/threonine-protein kinase 25 (Homo sapiens) (UniProt O00506); conditions: Compound concentration 1000.0 nM
[28] = biological target: Aurora kinase A (Homo sapiens) (UniProt O14965); conditions: Compound concentration 1000.0 nM
[29] = biological target: T1, 5-hydroxytryptamine receptor 2C (Homo sapiens) (UniProt P28335); conditions: Compound concentration 10.0 uM
T1 sequence (whole entry): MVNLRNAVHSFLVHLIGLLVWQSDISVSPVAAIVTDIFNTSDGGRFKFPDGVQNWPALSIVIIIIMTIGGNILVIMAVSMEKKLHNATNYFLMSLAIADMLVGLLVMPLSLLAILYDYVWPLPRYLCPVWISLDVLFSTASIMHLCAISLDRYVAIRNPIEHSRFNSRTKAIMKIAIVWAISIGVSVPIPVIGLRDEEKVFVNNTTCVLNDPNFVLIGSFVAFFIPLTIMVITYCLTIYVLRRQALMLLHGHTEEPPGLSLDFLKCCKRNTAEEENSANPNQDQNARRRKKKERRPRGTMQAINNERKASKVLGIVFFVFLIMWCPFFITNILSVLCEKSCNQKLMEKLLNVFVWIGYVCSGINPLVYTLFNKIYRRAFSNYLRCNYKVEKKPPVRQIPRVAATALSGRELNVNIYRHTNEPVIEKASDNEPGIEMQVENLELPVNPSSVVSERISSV

[30] = biological target: Rho-associated protein kinase 2 (Homo sapiens) (UniProt O75116); conditions: Compound concentration 1000.0 nM
[31] = biological target: Serine/threonine-protein kinase PLK4 (Homo sapiens) (UniProt O00444); conditions: Compound concentration 1000.0 nM
[32] = biological target: Dual specificity tyrosine-phosphorylation-regulated kinase 2 (Homo sapiens) (UniProt Q92630); conditions: Compound concentration 1000.0 nM
[33] = biological target: Homeodomain-interacting protein kinase 2 (Homo sapiens) (UniProt Q9H2X6); conditions: Compound concentration 1000.0 nM
[34] = tested on: Proto-oncogene tyrosine-protein kinase receptor Ret (Homo sapiens), P07949 [V804L]; conditions: Compound concentration 1000.0 nM
[35] = biological target: Mitogen-activated protein kinase 11 (Homo sapiens) (UniProt Q15759); conditions: Compound concentration 1000.0 nM

Chain of Non-receptor tyrosine-protein kinase TNK1 (Homo sapiens) (Q13470 whole entry): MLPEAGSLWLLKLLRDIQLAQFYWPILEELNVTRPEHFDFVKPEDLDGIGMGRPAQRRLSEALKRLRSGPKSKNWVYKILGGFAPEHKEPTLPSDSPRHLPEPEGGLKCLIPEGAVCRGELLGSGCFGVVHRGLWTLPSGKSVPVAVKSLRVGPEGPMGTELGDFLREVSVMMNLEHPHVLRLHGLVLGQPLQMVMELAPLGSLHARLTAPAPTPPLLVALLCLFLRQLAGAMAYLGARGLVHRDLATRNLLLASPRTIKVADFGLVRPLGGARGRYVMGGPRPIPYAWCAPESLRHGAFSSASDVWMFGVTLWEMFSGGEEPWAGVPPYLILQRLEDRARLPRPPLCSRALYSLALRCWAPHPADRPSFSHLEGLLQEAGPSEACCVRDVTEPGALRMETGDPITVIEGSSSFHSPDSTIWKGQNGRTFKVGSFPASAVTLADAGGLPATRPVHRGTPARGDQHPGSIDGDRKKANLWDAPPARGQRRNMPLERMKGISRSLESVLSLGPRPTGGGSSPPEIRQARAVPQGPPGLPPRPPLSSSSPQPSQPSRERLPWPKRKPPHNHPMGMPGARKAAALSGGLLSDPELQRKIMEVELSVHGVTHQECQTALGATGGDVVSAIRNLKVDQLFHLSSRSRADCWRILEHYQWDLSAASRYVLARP
Chain of Serine/threonine-protein kinase 38 (Homo sapiens) (Q15208 2-465 limits assumed): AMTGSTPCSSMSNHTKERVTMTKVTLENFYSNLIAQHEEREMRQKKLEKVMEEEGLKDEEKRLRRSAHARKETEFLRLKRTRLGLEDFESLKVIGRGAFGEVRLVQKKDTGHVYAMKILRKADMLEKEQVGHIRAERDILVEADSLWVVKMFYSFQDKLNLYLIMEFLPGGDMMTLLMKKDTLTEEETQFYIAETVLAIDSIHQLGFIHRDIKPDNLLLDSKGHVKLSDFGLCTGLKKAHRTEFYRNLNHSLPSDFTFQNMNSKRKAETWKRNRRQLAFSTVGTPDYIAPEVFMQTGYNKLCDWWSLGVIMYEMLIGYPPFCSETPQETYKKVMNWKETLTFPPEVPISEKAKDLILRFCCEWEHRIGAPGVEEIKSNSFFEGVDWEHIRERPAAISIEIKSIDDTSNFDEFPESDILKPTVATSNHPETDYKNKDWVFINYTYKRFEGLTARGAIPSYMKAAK
Chain of Serine/threonine-protein kinase 25 (Homo sapiens) (O00506 whole entry, looked up): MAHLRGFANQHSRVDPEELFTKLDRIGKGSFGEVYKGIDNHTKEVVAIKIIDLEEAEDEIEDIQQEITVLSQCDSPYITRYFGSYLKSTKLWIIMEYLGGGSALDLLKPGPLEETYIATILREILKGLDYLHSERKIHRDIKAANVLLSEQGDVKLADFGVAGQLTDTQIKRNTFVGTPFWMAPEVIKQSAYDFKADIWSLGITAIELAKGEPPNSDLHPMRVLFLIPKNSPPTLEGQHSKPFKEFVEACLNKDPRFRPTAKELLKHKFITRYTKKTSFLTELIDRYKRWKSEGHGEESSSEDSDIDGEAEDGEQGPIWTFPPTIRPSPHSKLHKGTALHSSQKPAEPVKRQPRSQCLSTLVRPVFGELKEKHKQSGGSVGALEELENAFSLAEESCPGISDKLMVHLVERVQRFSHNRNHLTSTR
Chain of Misshapen-like kinase 1 (Homo sapiens) (Q8N4C8 whole entry, looked up): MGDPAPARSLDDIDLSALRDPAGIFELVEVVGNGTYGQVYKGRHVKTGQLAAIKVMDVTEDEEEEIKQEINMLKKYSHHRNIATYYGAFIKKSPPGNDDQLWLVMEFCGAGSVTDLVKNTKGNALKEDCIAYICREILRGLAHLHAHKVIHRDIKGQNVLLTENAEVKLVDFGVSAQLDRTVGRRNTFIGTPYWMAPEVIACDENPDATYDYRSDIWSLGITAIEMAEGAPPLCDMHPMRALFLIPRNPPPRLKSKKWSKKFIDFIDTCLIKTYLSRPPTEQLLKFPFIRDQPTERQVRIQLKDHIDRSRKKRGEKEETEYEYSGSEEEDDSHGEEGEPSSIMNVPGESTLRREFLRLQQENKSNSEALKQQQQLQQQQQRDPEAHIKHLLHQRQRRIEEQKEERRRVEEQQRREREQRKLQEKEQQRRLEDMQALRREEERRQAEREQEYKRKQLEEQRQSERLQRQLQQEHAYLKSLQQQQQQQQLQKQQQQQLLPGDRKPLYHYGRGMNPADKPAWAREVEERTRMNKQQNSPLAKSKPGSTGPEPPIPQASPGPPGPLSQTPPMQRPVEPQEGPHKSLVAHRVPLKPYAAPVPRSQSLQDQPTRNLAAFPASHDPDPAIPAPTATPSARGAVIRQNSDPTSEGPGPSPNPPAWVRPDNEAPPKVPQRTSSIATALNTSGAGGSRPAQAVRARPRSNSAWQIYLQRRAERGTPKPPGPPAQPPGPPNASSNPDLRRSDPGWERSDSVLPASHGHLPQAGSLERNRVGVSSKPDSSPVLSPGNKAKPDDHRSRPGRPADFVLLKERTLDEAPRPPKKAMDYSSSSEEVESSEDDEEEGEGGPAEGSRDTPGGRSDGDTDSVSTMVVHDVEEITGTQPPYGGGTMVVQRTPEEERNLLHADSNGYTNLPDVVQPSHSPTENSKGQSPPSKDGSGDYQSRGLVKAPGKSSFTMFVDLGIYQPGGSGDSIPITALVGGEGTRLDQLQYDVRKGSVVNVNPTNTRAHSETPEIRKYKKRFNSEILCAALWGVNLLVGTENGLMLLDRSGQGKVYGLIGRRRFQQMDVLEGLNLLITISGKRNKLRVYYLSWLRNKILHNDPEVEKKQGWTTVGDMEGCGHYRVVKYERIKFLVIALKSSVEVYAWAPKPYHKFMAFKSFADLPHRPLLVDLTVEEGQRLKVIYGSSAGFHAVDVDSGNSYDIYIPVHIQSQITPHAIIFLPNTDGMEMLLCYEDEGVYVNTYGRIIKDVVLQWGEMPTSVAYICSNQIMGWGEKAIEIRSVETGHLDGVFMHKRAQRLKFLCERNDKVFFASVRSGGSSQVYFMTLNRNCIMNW
Chain of Rho-associated protein kinase 2 (Homo sapiens) (O75116 whole entry, looked up): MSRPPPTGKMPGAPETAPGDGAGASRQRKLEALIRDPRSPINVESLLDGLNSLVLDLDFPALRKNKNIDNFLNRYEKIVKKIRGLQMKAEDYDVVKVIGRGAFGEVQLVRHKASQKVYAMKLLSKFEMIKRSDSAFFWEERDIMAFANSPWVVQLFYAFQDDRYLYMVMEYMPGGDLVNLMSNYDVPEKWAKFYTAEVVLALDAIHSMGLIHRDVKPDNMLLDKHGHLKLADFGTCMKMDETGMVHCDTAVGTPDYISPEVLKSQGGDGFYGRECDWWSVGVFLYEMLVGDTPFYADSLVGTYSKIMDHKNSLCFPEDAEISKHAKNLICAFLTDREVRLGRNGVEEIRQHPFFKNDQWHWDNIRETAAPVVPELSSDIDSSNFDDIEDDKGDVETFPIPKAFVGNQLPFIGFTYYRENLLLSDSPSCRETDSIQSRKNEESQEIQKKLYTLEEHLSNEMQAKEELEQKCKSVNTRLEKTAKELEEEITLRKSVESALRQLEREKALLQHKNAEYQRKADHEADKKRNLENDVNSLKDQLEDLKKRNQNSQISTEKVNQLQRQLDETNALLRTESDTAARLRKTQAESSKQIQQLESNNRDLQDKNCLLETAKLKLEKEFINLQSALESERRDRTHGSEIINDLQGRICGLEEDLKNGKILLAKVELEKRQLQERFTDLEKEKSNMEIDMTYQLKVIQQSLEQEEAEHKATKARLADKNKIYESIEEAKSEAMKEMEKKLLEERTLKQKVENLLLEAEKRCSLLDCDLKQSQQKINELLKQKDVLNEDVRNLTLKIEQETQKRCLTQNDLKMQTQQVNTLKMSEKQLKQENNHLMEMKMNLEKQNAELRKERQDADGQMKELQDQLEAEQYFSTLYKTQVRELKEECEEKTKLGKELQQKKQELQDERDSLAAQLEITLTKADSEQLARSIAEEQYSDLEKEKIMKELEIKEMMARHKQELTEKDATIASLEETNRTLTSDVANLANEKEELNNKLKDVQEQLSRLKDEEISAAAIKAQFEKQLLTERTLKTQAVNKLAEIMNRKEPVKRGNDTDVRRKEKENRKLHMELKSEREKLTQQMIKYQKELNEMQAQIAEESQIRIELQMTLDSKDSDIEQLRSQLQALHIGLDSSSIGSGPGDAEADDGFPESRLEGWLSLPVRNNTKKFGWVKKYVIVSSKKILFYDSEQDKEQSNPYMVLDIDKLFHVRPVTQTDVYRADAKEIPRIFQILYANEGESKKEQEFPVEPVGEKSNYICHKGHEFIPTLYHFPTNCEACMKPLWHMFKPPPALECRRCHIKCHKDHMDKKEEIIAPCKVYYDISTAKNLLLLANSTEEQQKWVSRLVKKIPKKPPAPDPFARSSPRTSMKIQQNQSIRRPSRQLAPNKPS
Chain of Serine/threonine-protein kinase Chk2 (Homo sapiens) (O96017 whole entry): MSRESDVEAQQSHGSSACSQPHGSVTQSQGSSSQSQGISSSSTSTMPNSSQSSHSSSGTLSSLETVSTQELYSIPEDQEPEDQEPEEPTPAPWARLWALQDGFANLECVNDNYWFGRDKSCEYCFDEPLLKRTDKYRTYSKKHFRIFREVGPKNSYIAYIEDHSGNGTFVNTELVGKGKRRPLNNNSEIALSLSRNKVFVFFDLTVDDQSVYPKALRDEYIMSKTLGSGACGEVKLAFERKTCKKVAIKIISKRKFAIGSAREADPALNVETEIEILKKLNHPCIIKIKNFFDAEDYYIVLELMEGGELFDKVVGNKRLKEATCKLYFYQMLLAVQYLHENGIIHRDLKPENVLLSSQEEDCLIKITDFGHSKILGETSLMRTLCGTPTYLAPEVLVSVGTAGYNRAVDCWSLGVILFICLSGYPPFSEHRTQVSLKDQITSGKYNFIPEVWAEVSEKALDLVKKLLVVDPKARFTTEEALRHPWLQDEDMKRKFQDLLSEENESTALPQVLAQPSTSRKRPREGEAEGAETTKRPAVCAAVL

SMILES: CC(C)(O)c1cncc(-c2nc3ccc(F)cc3n2C2CC2)c1 [MSD-CYP11B2]
- residual activity [1]: 100%
- residual activity [2]: 98%
- residual activity [3]: 89%
- residual activity [4]: 100%
- residual activity [5]: 93%
- residual activity [6]: 100%
- residual activity [7]: 77%
- residual activity [8]: 100%
- residual activity [9]: 100%
- residual activity [10]: 100%
- residual activity [11]: 100%
- residual activity [12]: 98%
- residual activity [13]: 100%
- residual activity [14]: 100%
- residual activity [15]: 100%
- residual activity [16]: 100%
- residual activity [17]: 100%
- residual activity [18]: 100%
- residual activity [19]: 100%
- residual activity [20]: 100%
- residual activity [21]: 100%
- residual activity [22]: 100%
- residual activity [23]: 100%
- residual activity [24]: 99%
- residual activity [25]: 100%
- residual activity [26]: 100%
- residual activity [27]: 100%
- residual activity [28]: 94%
- inhibition [29]: 100%
- residual activity [30]: 92%
- residual activity [31]: 79%
- residual activity [32]: 100%
- residual activity [33]: 100%
- residual activity [34]: 100%
- residual activity [35]: 100%

SMILES: FC(F)(F)c1ccc2c(c1)nc(-c1cccnc1)n2C1CC1 [MSD-CYP11B2-Negative-control]
- residual activity [1]: 100%
- residual activity [2]: 100%
- residual activity [3]: 91%
- residual activity [4]: 100%
- residual activity [5]: 93%
- residual activity [6]: 91%
- residual activity [7]: 100%
- residual activity [8]: 100%
- residual activity [9]: 100%
- residual activity [10]: 100%
- residual activity [11]: 100%
- residual activity [12]: 100%
- residual activity [13]: 89%
- residual activity [14]: 100%
- residual activity [15]: 93%
- residual activity [16]: 100%
- residual activity [17]: 100%
- residual activity [18]: 100%
- residual activity [19]: 100%
- residual activity [20]: 100%
- residual activity [21]: 100%
- residual activity [22]: 100%
- residual activity [23]: 100%
- residual activity [24]: 93%
- residual activity [25]: 99%
- residual activity [26]: 90%
- residual activity [27]: 99%
- residual activity [28]: 98%
- inhibition [29]: 30.8%
- residual activity [30]: 100%
- residual activity [31]: 78%
- residual activity [32]: 100%
- residual activity [33]: 100%
- residual activity [34]: 81%
- residual activity [35]: 100%
